Assay results: the NIST ThermoML archive (doi:10.1016/j.jct.2003.11.008)
± gives the expanded uncertainty stated by the source.

Columns and labels:
[1] = excess molar enthalpy (molar enthalpy of mixing); xn = mol fraction of the nth substance listed; settings: 318.15 K, 101.3 kPa, Liquid
[2] = xn = mol fraction of the nth substance listed; settings: 318.15 K, 101.3 kPa, Liquid

CCCCCCCCCCCCCCC [pentadecane] + CCOC(C)=O
Settings	excess molar enthalpy [kcal/mol]	excess molar volume [m3/mol]
[1], x2 = 0.0901	0.134 ± 0.00239	–
[1], x2 = 0.1777	0.244 ± 0.00406	–
[1], x2 = 0.2582	0.339 ± 0.00574	–
[1], x2 = 0.3339	0.41 ± 0.00669	–
[1], x2 = 0.397	0.456 ± 0.00741	–
[1], x2 = 0.4609	0.489 ± 0.00789	–
[1], x2 = 0.5093	0.505 ± 0.00813	–
[1], x2 = 0.5557	0.511 ± 0.00837	–
[1], x2 = 0.6033	0.509 ± 0.00837	–
[1], x2 = 0.6563	0.495 ± 0.00813	–
[1], x2 = 0.6935	0.48 ± 0.00789	–
[1], x2 = 0.7292	0.457 ± 0.00741	–
[1], x2 = 0.7706	0.424 ± 0.00693	–
[1], x2 = 0.813	0.384 ± 0.00621	–
[1], x2 = 0.8538	0.332 ± 0.0055	–
[1], x2 = 0.8958	0.273 ± 0.00454	–
[1], x2 = 0.9283	0.21 ± 0.00359	–
[1], x2 = 0.9676	0.115 ± 0.0022	–
[2], x2 = 0.0932	–	4.44e-07 ± 1.8e-08
[2], x2 = 0.1272	–	5.87e-07 ± 1.8e-08
[2], x2 = 0.2314	–	9.83e-07 ± 2e-08
[2], x2 = 0.3237	–	1.237e-06 ± 2.1e-08
[2], x2 = 0.4048	–	1.412e-06 ± 2.2e-08
[2], x2 = 0.465	–	1.483e-06 ± 2.2e-08
[2], x2 = 0.5427	–	1.54e-06 ± 2.3e-08
[2], x2 = 0.5987	–	1.536e-06 ± 2.3e-08
[2], x2 = 0.6373	–	1.512e-06 ± 2.3e-08
[2], x2 = 0.6957	–	1.432e-06 ± 2.2e-08
[2], x2 = 0.7643	–	1.293e-06 ± 2.2e-08
[2], x2 = 0.8273	–	1.104e-06 ± 2.1e-08
[2], x2 = 0.8926	–	8.05e-07 ± 1.9e-08
[2], x2 = 0.9375	–	5.48e-07 ± 1.8e-08
[2], x2 = 0.9714	–	2.73e-07 ± 1.7e-08

CCCCCCCCCCCCCCC [pentadecane] + COC(C)=O
Settings	excess molar enthalpy [kcal/mol]	excess molar volume [m3/mol]
[1], x2 = 0.091	0.14 ± 0.00263	–
[1], x2 = 0.1824	0.272 ± 0.00454	–
[1], x2 = 0.2689	0.391 ± 0.00645	–
[1], x2 = 0.3572	0.488 ± 0.00789	–
[1], x2 = 0.4282	0.549 ± 0.00884	–
[1], x2 = 0.4946	0.586 ± 0.00956	–
[1], x2 = 0.5472	0.6 ± 0.0098	–
[1], x2 = 0.5908	0.601 ± 0.0098	–
[1], x2 = 0.6306	0.594 ± 0.00956	–
[1], x2 = 0.6559	0.584 ± 0.00932	–
[1], x2 = 0.6897	0.567 ± 0.00908	–
[1], x2 = 0.7229	0.544 ± 0.00884	–
[1], x2 = 0.7578	0.52 ± 0.00837	–
[1], x2 = 0.7947	0.484 ± 0.00789	–
[1], x2 = 0.8299	0.438 ± 0.00717	–
[1], x2 = 0.8675	0.385 ± 0.00621	–
[1], x2 = 0.905	0.316 ± 0.00526	–
[1], x2 = 0.94	0.238 ± 0.00406	–
[1], x2 = 0.9723	0.148 ± 0.00263	–
[2], x2 = 0.1527	–	8.72e-07 ± 3.9e-08
[2], x2 = 0.2889	–	1.467e-06 ± 4.5e-08
[2], x2 = 0.3786	–	1.739e-06 ± 4.7e-08
[2], x2 = 0.4627	–	1.898e-06 ± 4.9e-08
[2], x2 = 0.5368	–	1.979e-06 ± 4.9e-08
[2], x2 = 0.5993	–	2.002e-06 ± 5e-08
[2], x2 = 0.6511	–	1.945e-06 ± 4.9e-08
[2], x2 = 0.6955	–	1.858e-06 ± 4.8e-08
[2], x2 = 0.7356	–	1.746e-06 ± 4.7e-08
[2], x2 = 0.777	–	1.644e-06 ± 4.6e-08
[2], x2 = 0.8099	–	1.512e-06 ± 4.5e-08
[2], x2 = 0.8412	–	1.386e-06 ± 4.4e-08
[2], x2 = 0.8595	–	1.259e-06 ± 4.3e-08
[2], x2 = 0.9126	–	9.19e-07 ± 4e-08
[2], x2 = 0.9511	–	5.84e-07 ± 3.6e-08
[2], x2 = 0.9777	–	2.73e-07 ± 3.4e-08

CCCCCOC(C)=O [pentyl ethanoate] + CCCCCCC
Settings	excess molar enthalpy [kcal/mol]	excess molar volume [m3/mol]
[1], x1 = 0.0544	0.0566 ± 0.00127	–
[1], x1 = 0.1187	0.104 ± 0.00198	–
[1], x1 = 0.1801	0.141 ± 0.00263	–
[1], x1 = 0.2428	0.169 ± 0.00311	–
[1], x1 = 0.3049	0.192 ± 0.00335	–
[1], x1 = 0.3645	0.205 ± 0.00359	–
[1], x1 = 0.4174	0.211 ± 0.00359	–
[1], x1 = 0.468	0.212 ± 0.00359	–
[1], x1 = 0.472	0.212 ± 0.00359	–
[1], x1 = 0.5161	0.209 ± 0.00359	–
[1], x1 = 0.5646	0.203 ± 0.00359	–
[1], x1 = 0.6163	0.191 ± 0.00335	–
[1], x1 = 0.6696	0.176 ± 0.00311	–
[1], x1 = 0.7277	0.155 ± 0.00287	–
[1], x1 = 0.7889	0.128 ± 0.00234	–
[1], x1 = 0.8473	0.0966 ± 0.00186	–
[1], x1 = 0.9078	0.0615 ± 0.00134	–
[1], x1 = 0.9594	0.0278 ± 0.000813	–
[2], x1 = 0.0546	–	1.29e-07 ± 1.6e-08
[2], x1 = 0.1048	–	2.14e-07 ± 1.6e-08
[2], x1 = 0.1515	–	2.65e-07 ± 1.7e-08
[2], x1 = 0.2014	–	3.07e-07 ± 1.7e-08
[2], x1 = 0.2488	–	3.45e-07 ± 1.7e-08
[2], x1 = 0.3009	–	3.81e-07 ± 1.7e-08
[2], x1 = 0.3474	–	3.99e-07 ± 1.7e-08
[2], x1 = 0.3999	–	4.11e-07 ± 1.7e-08
[2], x1 = 0.4426	–	4.09e-07 ± 1.7e-08
[2], x1 = 0.4977	–	3.97e-07 ± 1.7e-08
[2], x1 = 0.5503	–	3.72e-07 ± 1.7e-08
[2], x1 = 0.5881	–	3.55e-07 ± 1.7e-08
[2], x1 = 0.636	–	3.23e-07 ± 1.7e-08
[2], x1 = 0.7502	–	2.51e-07 ± 1.7e-08
[2], x1 = 0.8467	–	1.71e-07 ± 1.6e-08
[2], x1 = 0.9288	–	9.4e-08 ± 1.6e-08
